According to patent US20230146038A1, “DIMERIZATION ASSAY” (The University of Bath, priority 2020, published 2023):

Assays:
[1] = system: BL21 GOLD cells; assay: Aβ1-42 dimerization assay (colony growth); type: cell-based, E. coli; conditions: for colonies grown on test plates: M9 minimal media with Tmp and IPTG; for colonies grown on negative control plates: M9 minimal media with Tmp; for No. of colonies (CFU): 48-hour incubation
Description: Schematic illustrating general principles of using the TBS assay to screen for inhibitors of the initial dimerization event of Aβ1-42. In bacterial cells, endogenous DHFR can be inhibited using the antibiotic trimethoprim, making cells reliant on the modified, exogenous DHFR (top panel). In this setting, if AP-1 binds to the TRE sites in the DHFR, transcription is blocked and no functional DHFR enzyme is produced, resulting in cell death (middle panel). By attaching this basic cJun region to Aβ1-42, a functional DNA binder will be created if two Aβ1-42 peptides dimerize. In the absence of an inhibitor, basic-Aβ1-42 dimerization would lead to blocking of the DHFR gene transcription, resulting in cell death (lower left hand panel). Only cells treated with a successful Aβ1-42 dimerization inhibitor would produce DHFR and so survive, allowing selection for potential therapeutics for treating Alzheimer's Disease (lower right hand panel).
BL21 GOLD cells stably expressing a pREP4 plasmid containing lac inhibitor […] gene were used for the dimerization assay, so that the lac operon could be controlled. Cells were transformed with p300d plasmid containing DHFR with 15 TRE sites under control of the lac operon (described in Example 1), and either a p230d containing Aβ1-42 or constructed basic-Aβ1-42.
BL21 from the 100 μL plates were scraped into LB and selecting antibiotics and grown to an OD600 of 0.5. 100 μL of culture was plated onto positive control, negative control and test plates, as described in Table 3 below.
A covering of cells was seen on both positive control plates, showing that BL21 cells were not affected by scraping and re-plating. Tmp was used to inhibit the endogenous, E. coli DHFR enzyme. […] Two basic-Aβ1-42 expressing colonies and one Aβ1-42 colony grew on these negative control plates. Test plates contained IPTG to bind to lac repressor protein and allow expression of the modified DHFR in the bacteria. There were 63 Aβ1-42 expressing BL21 colonies formed on these plates, which confirmed that the modified DHFR gene allows cells to grow on minimal media. Importantly, only 2 basic-Aβ1-42 expressing colonies grew on test plates, which was consistent with levels of background growth seen on negative control plates.

[2] = system: TRE's introduced within the mDHFR gene; assay: Transcription-Block Survival (TBS) assay with basic-cJun; type: cell-based, E. coli; conditions: M9 minimal media with Tmp and IPTG, protein overexpressed on second plasmid with mDHFR containing 15 TREs
Description: Fifteen TREs have been introduced into the mDHFR gene. A) The changes to the DNA sequence result in a fully active protein that expresses, folds, and confers survival in M9 minimal media using trimethoprim (TMP) to inhibit bacterial DHFR. […] Expressing mDHFR with IPTG (right hand side plates), generates colonies in A) but not B).
It was next necessary to establish that introduction of an AP-1 component (in this case basic-cJun) would result in binding to the 15 TRE's introduced within the mDHFR gene and therefore failure of the gene to be transcribed.
Three plasmids were used for this assay. These are i) p300-mDHFR (Cm; SEQ ID NO: 42) to express the […] sequence containing mDHFR, which is under control of the lac-operon; ii) p230d-basic-cJun (Amp; SEQ ID NO: 43) which is also under control of the lac-operon; iii) pREP4 (Kan; SEQ ID NO: 44) to express the lac repressor.
Cells were grown under non-selective conditions (i.e. LB/LB agar) containing Cm/Amp/Kan up until the time of the Assay. During TBS Selection Cells are grown in M9 minimal media (Agar or Broth) in the presence of Cm/Amp/Kan, as well as Tmp (to inhibit the bacterial copies of DHFR) and IPTG (to induce expression of mDHFR and bZIP proteins). […]

[3] = molecular target: the molecule itself; assay: TBS cell survival assay in E. coli, colony formation on M9 agar
Description: Cells were grown under non-selective conditions (i.e. LB/LB agar) containing Cm/Amp/Kan up until the time of the Assay. During TBS Selection Cells are grown in M9 minimal media (Agar or Broth) in the presence of Cm/Amp/Kan, as well as Tmp (to inhibit the bacterial copies of DHFR) and IPTG (to induce expression of mDHFR and bZIP proteins). During Assay selection, media-lacking ITPG is used to serve as a negative control to ensure that cell survival is exclusively driven by the loss on interaction between bZIP target protein and the consensus sequences located within the mDHFR gene.

[4] = Negative control plate: M9 minimal agar, 3.4 μM Tmp, no IPTG
[5] = Positive control plate: LB agar, Cm, Kan and Amp
[6] = Test plate: M9 minimal agar, 3.4 μM Tmp, 1 mM IPTG

In the case of “Aβ1-42: amyloid-β peptide having 42 amino acids (SEQ ID NO: 49), expressed without the basic cJun region [reference compound]”, the “colonies grown on test plates” value [1] is reported as 63 colonies, the “colonies grown on negative control plates” value ([1]; no IPTG) is reported as “one” and the “No. of colonies (CFU)” value [1, 4] is reported as 1 CFU. For the same molecule, the “No. of colonies (CFU)” value [1, 5] was “Covered” and the “No. of colonies (CFU)” value [1, 6] was 63 CFU.

“basic-Aβ1-42: fusion protein of the basic cJun region and Aβ1-42 (SEQ ID NO: 51)” was tested, and the “colonies grown on test plates” value [1] was 2 colonies, the “colonies grown on negative control plates” value ([1]; no IPTG) was “Two” and the “No. of colonies (CFU)” value [1, 4] was 2 CFU. The “No. of colonies (CFU)” value [1, 5] was “Covered” and the “No. of colonies (CFU)” value [1, 6] was 2 CFU.

B1: basic-cJun (other)
chain: MRIKAERKRMRNRIAASKCRKRKLERIARLEEKVKTLKAQNYELASTANMLREQVAQLGAPHHHHHH
notes: also called AP-1 component; p230d-basic-cJun
B1 was tested, and the “bacterial colony formation in minimal media” value [2] was “complete loss of bacterial colonies”, the “bacterial colony formation in minimal media” value ([2]; listed as Basic-cJun) was “no colonies grow” and the binding result [3] was “binds”.
